Here are results for 8 compounds from PubChem BioAssay (NCI).

Common to all, as to experiment: NCI-60 cell line screen, 48 h
Test [1] relates to OVCAR-8 ovarian.
In test [2] the test system is HOP-92 NSCLC.
For test [3], the system named is RXF 393 renal.
Test [4] concerns SF-539 CNS.
In test [5] the test system is SF-295 CNS.
In test [6] the test system is LOX IMVI melanoma.
In test [7] the test system is COLO 205 colon.
Test [8] has as its system T-47D breast.
The subject of test [9] is OVCAR-5 ovarian.
Test [10] deals with K-562 leukemia.

Where “and” joins values, the source holds several entries; their conditions need not be identical. Equal entries are not always repeated.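 1) Cells in 96-well plates. 2) Compound, 48 h, 5 concentrations. 3) Linear interpolation between surrounding doses. 4) Unreached endpoint = highest concentration. GI50 = concentration required for 50% inhibition of growth. The concentration for full growth arrest is given as TGI.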 Where only a bound is given, the exact number is not on record here.

Regarding `Cc1csc(/C=C/C(=O)c2nnn(-c3ccnc4c(C(F)(F)F)cccc34)c2C)c1`, the GI50 is more than 100 µM in test [1]; 90.2 µM in test [2]; more than 100 µM in test [3]; more than 100 µM in [4]; more than 100 µM in test [5]; 49.1 µM in [6]. Moreover, the GI50 was 41.3 µM in test [7], 21.1 µM in test [8], more than 100 µM in test [9] and 23 µM in test [10]. In addition, the TGI in [1], in test [2], in [3], in test [4], in [5] and in [6] was more than 100 µM each time. Further, the TGI in test [7], in [8], in test [9] and in test [10] was more than 100 µM each time.
For the compound `CC(C)=CCC/C(C)=C/CC/C(C)=C/CSc1ccccc1C(=O)O`, the GI50 is 23.9 µM in test [1]; 19.3 µM in test [2]; 22.2 µM in test [3]; 19.9 µM in [4]; 25.2 µM in test [5]; 26.6 µM in test [6]. For the same compound, the GI50 in test [7] is 36.8 µM; in test [8], 33.6 µM; in test [9], 23.1 µM; in [10] it was 26.2 µM. Moreover, the TGI was > 65.5 µM and 36.6 µM in [1]; 57.1 µM and 59.7 µM in test [2]; 52.3 µM and 56 µM in test [3]; 42.2 µM and 33.9 µM in [4]; 60.7 µM and 40 µM in test [5]; > 68.5 µM and 35.4 µM in test [6]. Further, the TGI in [7] was > 100 µM and 48.4 µM; in test [8], more than 91.3 µM; in [9] it was 62.6 µM and 36.3 µM; in [10], more than 100 µM.
As to `NCCOCCOCCNc1nc(-c2ccccc2)nc(N2CCN(c3ccccn3)CC2)n1`, the GI50 was 15.8 µM in test [1]; 1.84 µM in test [2]; 10.1 µM in [3]; 17.6 µM in test [4]; 17.5 µM in test [5]; 8.3 µM in test [6]. Besides, the GI50 in test [7] is 6.35 µM; in test [8], 11.7 µM; in test [9], 16.1 µM; in test [10], 7.87 µM. Moreover, the TGI in test [1] was 34.5 µM; in test [2], 11.1 µM; in [3] it was 22.8 µM; in test [4] it was 33.1 µM; in [5], 36 µM; in test [6], 21.3 µM. The TGI in [7] is 21.1 µM; in test [8], 30.3 µM; in test [9], 30.4 µM; in test [10] it was 22.9 µM.
In the case of `C#CCSc1cc(Cl)c(C)cc1S(=O)(=O)Nc1nc2ccccc2o1`, the GI50 was 40.4 µM in test [1]; 17.9 µM in test [2]; 32.9 µM in [3]; 20.2 µM in [4]; 25.5 µM in test [5]; 36 µM in [6]. Besides, the GI50 in test [7] is 26 µM; in test [8] it was 44.3 µM; in test [9], 51.6 µM; in test [10] it was 69.8 µM. Besides, the TGI in [1] was more than 100 µM; in test [2] it was 51.3 µM; in test [3], more than 100 µM; in [4], 39.1 µM; in test [5] it was 61.2 µM; in test [6], more than 100 µM. The TGI was 71.7 µM in test [7], more than 100 µM in test [8], more than 100 µM in test [9] and more than 100 µM in test [10].
As to `CCN(CC)CCCNCc1cc(-c2ccccc2)nc2ccccc12`, the GI50 was 3.21 µM in [1]; 2.34 µM in [2]; 6.99 µM in test [3]; 3.24 µM in [4]; 16.5 µM in test [5]; 2.32 µM in [6]. The GI50 is 15.8 µM in [7], 10.2 µM in test [8], 37.9 µM in test [9] and 5.63 µM in [10]. Further, the TGI was 10.6 µM in test [1]; 9.41 µM in [2]; 39.9 µM in test [3]; 8.49 µM in [4]; 44.7 µM in [5]; 11.4 µM in [6]. Also, the TGI is 31.3 µM in test [7], 59.6 µM in test [8], more than 100 µM in test [9] and 22.1 µM in test [10].
For the compound `Oc1ccc(-c2nc3ccccc3s2)cc1CN(Cc1ccccn1)Cc1ccccn1`, the GI50 in [1] was 0.52 µM; in test [2] it was 4.19 µM; in test [3], 1.64 µM; in [4] it was 1.42 µM; in test [5], 0.468 µM; in [6], 1.21 µM. Also, the GI50 is 3.4 µM in test [7], 3.79 µM in [8], 2.92 µM in [9] and 0.674 µM in [10]. The TGI is 13.4 µM in [1]; 36.7 µM in test [2]; 9.96 µM in test [3]; 6.75 µM in test [4]; 6.87 µM in [5]; 10.7 µM in test [6]. Besides, the TGI amounted to 15.2 µM in [7], 89.9 µM in test [8], 29.8 µM in [9] and 35.5 µM in test [10].
On to `CCOC(=O)C1c2[nH]c3ccccc3c2CCN1C(=O)c1ccc(OC)o1` (stereo not given), for which the TGI in test [1], in test [2], in [3], in test [4], in test [5] and in [6] was more than 10 µM each time. Besides, the TGI in test [7], in test [8], in test [9] and in [10] was more than 10 µM in each case.
As for `CC(C)=CCC[C@](C)(O)[C@H]1CC[C@]2(C)[C@@H]1CC[C@@H]1[C@@]3(C)CC/C(=N/O)C(C)(C)[C@@H]3CC[C@]12C`, the GI50 was 12 µM in test [1]; 7.48 µM in test [2]; 8.23 µM in test [3]; 24.3 µM in test [4]; 12.2 µM in test [5]; 15.7 µM in test [6]. Moreover, the GI50 in [7] was 11.4 µM; in test [8], 2.86 µM; in test [9] it was 22.2 µM; in test [10], 6.06 µM. Moreover, the TGI in [1] was 86.2 µM; in test [2], 26.2 µM; in [3], 38.4 µM; in test [4], more than 100 µM; in test [5], 42.3 µM; in test [6], 83 µM. Besides, the TGI in test [7] was more than 100 µM; in test [8], 88.1 µM; in test [9], more than 100 µM; in [10], more than 100 µM.
